Reference: US20220389013A1, “PYRIDOPYRIMIDINONE COMPOUNDS AND APPLICATIONS THEREOF” (BeBetter Med Inc., priority 2020, published 2022)

Key:
H23 (KRAS G12C) = test: Tumor cell proliferation inhibition assay (CellTiter-Glo), H23; type: cell-based, Human; conditions: 10% fetal bovine serum
Experimental: The H358, H23 or MIA-Paca2 cells were digested, centrifuged and resuspended, and the cell density was measured with a Scepter automatic cell counter. Cells were diluted to a solution containing 44,000 cells per milliliter, then added to a 96-well culture plate at 90 μL per well. The 96-well plate was placed in a 5% CO2 incubator at 37° C., and after the cells were cultured for 24 hours, different concentrations of the compounds to be tested were added. Cells were incubated with compounds in the presence of 10% fetal bovine serum for 72 hours. The inhibition of cell growth was assessed by measuring ATP levels by using the CellTiter-Glo Luminescent Cell Viability Assay Kit (details in manufacturer's instructions). In brief, 30 μL of CellTiter-Glo reagent was added to each well and the plate was shaken for 10 minutes to induce cell lysis, then the fluorescent signal was detected and recorded with a Fluoroskan Ascent FL (Thermo). Maximum signal values were obtained from cells treated with DMSO for 72 hours. Minimum signal values were obtained with medium only (zero cell number). Inhibition rate %=(maximum signal value-compound signal value)/(maximum signal value-minimum signal value)×100%. Data were processed by using Graphpad prism5 software. IC50 values were calculated using a sigmoidal dose-response curve.

H358 (KRAS G12C) = test: Tumor cell proliferation inhibition assay (CellTiter-Glo), H358; type: cell-based, Human; conditions: 10% fetal bovine serum
In short: (§1)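 Growth was read as ATP by CellTiter-Glo luminescence, with inhibition normalised to DMSO (max) and medium-only (min) wells. IC50 came from sigmoidal dose-response fits.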

MIA-Paca2 (KRAS G12C) = test: Tumor cell proliferation inhibition assay (CellTiter-Glo), MIA-Paca2; type: cell-based, Human; conditions: 10% fetal bovine serum
In short: as §1

KRAS-G12C/SOS1 = molecular target: T1, KRAS-G12C/SOS1 (Homo sapiens, UniProt P01116, G12C); test: HTRF KRAS-G12C/SOS1 binding assay; conditions: 2 hours room temperature
T1 construct: purchased Cisbio #63ADK000CB16PEG
T1 sequence (P01116 1-188 isoform P01116-2 G12C): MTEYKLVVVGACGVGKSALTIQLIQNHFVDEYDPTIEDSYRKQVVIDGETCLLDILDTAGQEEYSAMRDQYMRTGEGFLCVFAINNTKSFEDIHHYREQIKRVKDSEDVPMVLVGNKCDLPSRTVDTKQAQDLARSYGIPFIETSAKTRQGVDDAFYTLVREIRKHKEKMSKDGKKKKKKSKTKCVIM
Experimental: 2) Diluted the compound to be tested with diluent into 10× stock solution, starting from a concentration of 10000 nM, diluting in 4-fold gradient and a total of 6 concentration gradients.
After incubated at room temperature for 15 minutes, added pre-mixed 5 uL of anti-Tag1-Tb^3+ and 5 uL of anti-Tag2-XL665. Sealed the plate and incubated at room temperature for 2 hours.
Data were processed by using Graphpad prism software.

[1] = Pharmacokinetic (PK) experiment in rats by gavage; type: in vivo; conditions: rat, plasma, po, male SD rats, 20 mg/kg; for AUC(0-t): read-out: AUC0-24
Experimental: Male SD rats, weighing 180-250 g, were fasted overnight before the test and stomach administrated with the test compound at 20 mg/kg. 15 minutes, 30 minutes, and 1, 2, 4, 6, 8, and 24 hours after administration, blood was taken from the end of the tail of the fracture, about 0.3 mL per time point, then placed in a centrifuge tube containing K2-EDTA, and centrifuged (2000 g, 10 min, at 4° C.). Plasma was collected and stored in an ultra-low temperature freezer at −80° C. 50 μL of plasma samples were vortexed with 135 μL of acetonitrile (containing 1 μg/mL internal standard) for protein precipitation and centrifuged, and the supernatant was collected for LC-MS/MS analysis.
After the rats oral administrated with the Pyridopyrimidinone compounds provided by the present disclosure, the absorption is good, and the blood exposure is relatively high. […] Cmax refers to the maximum plasma concentration, T1/2 is the half-life, AUC0-24 refers to the area under the 0-24 hour time-concentration curve, and AUC0-inf refers to the area under the 0-Inf time-concentration curve.

[2] = Caco-2 cell transmembrane transport experiment; conditions: human; for Papp B→A at 90 min, 10 μM: basolateral to apical
Description: In this experiment, a monolayer of Caco-2 cells was used to assess drug penetration. […] The apparent permeability coefficient from apical to basolateral (Papp A-B) and the basolateral to apical permeability coefficient (Papp B-A) of compounds represent the ability of the compound to be transported in both directions, respectively.
Apparent permeability coefficient (Papp)=(the volume of the receiver chamber/the filter surface area×culture time))×(the drug concentration of receiver chamber at the end of culture/(the drug concentration of donor chamber at the initial culture×dilution factor)
In this experiment, Millipore cell culture plates (PSHT 010 R5): membrane area=0.7 cm^2, recipient side volume=0.8 mL (A-to-B) or 0.4 mL (B-to-A), incubation time=90 minutes.

Row | SMILES | IC50 (H23 (KRAS G12C); 72 hours) | IC50 (H358 (KRAS G12C); 72 hours) | IC50 (MIA-Paca2 (KRAS G12C); 72 hours) | IC50 (KRAS-G12C/SOS1) | AUC(0-inf) [1] | Cmax [1] | Tmax [1] | half-life [1] | AUC(0-t) [1] | IC50 (H358 (KRAS G12C); Homo sapiens, NCI-H358, 72 h) | IC50 (MIA-Paca2 (KRAS G12C); Homo sapiens, MIA PaCa-2, 72 h) | further results
1 | C=CC(=O)N1C[C@H](C)N(c2nc(=O)n(-c3c(C)ccnc3C(C)C)c3nc(-c4c(F)c(F)cc5ccoc45)c(Cl)cc23)C[C@H]1C (atropisomer, axis not shown; (P)) [Compound 104-2, 4-((2S,5R)-4-acryloyl-2,5-dimethylpiperazin-1-yl)-6-chloro-7-(5,6-difluorobenzofuran-7-yl)-1(P)-(2-isopropyl-4-methylpyridin-3-yl)pyrido[2,3-d]pyrimidin-2(1H)-one] | 10 to 50 nM | 100 to 500 nM | 100 to 500 nM |  |  |  |  |  |  |  |  | melting point: 153 to 162 °C
2 | C=CC(=O)N1CCN(c2nc(=O)n(-c3c(C)ccnc3C(C)C)c3nc(-c4c(F)ccc5ccoc45)c(F)cc23)[C@@H](C)C1 (single isomer, unassigned) [Compound 70-1] | < 10 nM | 10 to 50 nM | 10 to 50 nM | 50 to 100 nM | 7910 ng·h/mL | 3530 ng/mL | 1 h | 2.77 h | 7890 ng·h/mL |  |  | efflux ratio at 90 min, 10 μM ([2]; Caco-2, pH 7.4): 1.19; Papp A→B at 90 min, 10 μM ([2]; Caco-2, pH 7.4, Papp A-B Sample_01, 10 μM, pH 7.4, 37° C., 90 min, apical to basolateral): 19 ×10⁻⁶ cm/s; Papp A→B at 90 min, 10 μM ([2]; Caco-2, pH 7.4, Papp A-B Sample_02, 10 μM, pH 7.4, 37° C., 90 min, apical to basolateral): 18.8 ×10⁻⁶ cm/s; Papp A→B at 90 min, 10 μM ([2]; Caco-2, pH 7.4, Papp A-B mean value, 10 μM, pH 7.4, 37° C., 90 min, apical to basolateral): 18.9 ×10⁻⁶ cm/s; Papp B→A at 90 min, 10 μM ([2]; Caco-2, pH 7.4, Papp B-A Sample_01, 10 μM, pH 7.4, 37° C., 90 min): 21.1 ×10⁻⁶ cm/s; Papp B→A at 90 min, 10 μM ([2]; Caco-2, pH 7.4, Papp B-A Sample_02, 10 μM, pH 7.4, 37° C., 90 min): 23.7 ×10⁻⁶ cm/s; Papp B→A at 90 min, 10 μM ([2]; Caco-2, pH 7.4, Papp B-A mean value, 10 μM, pH 7.4, 37° C., 90 min): 22.4 ×10⁻⁶ cm/s; Papp A→B at 90 min, 10 μM ([2]; Caco-2, pH 7.4, apparent permeability coefficient Papp A-B, Caco-2): > 10 ×10⁻⁶ cm/s
3 | C=CC(=O)N1CCN(c2nc(=O)n(-c3c(C)ccnc3C(C)C)c3nc(-c4c(F)ccc5ccoc45)c(F)cc23)[C@@H](C)C1 (single isomer, unassigned) [Compound 70-2] | 50 to 100 nM | 100 to 500 nM | > 500 nM | > 1000 nM |  |  |  |  |  |  |  | 
4 | C=CC(=O)N1CCN(c2nc(=O)n(-c3c(C)ccnc3C(C)C)c3nc(-c4c(F)ccc5ccoc45)c(Cl)cc23)[C@@H](C)C1 (single isomer, unassigned) [Compound 73-2] | < 10 nM | 10 to 50 nM | 100 to 500 nM | 100 to 500 nM |  |  |  |  |  |  |  | 
5 | C=CC(=O)N1CCN(c2nc(=O)n(-c3c(C)ccnc3C(C)C)c3nc(-c4c(F)c(F)cc5ccoc45)c(F)cc23)[C@@H](C)C1 (single isomer, unassigned) [Compound 74-1] |  |  |  | 50 to 100 nM | 6220 ng·h/mL | 3180 ng/mL | 0.83 h | 5.3 h | 6200 ng·h/mL | 10 to 50 nM | 10 to 50 nM | IC50 (H23 (KRAS G12C); Homo sapiens, 72 h): < 10 nM
6 | C=CC(=O)N1C[C@H](C)N(c2nc(=O)n(-c3c(C)ccnc3C(C)C)c3nc(-c4c(F)ccc5ccoc45)c(F)cc23)C[C@H]1C (single isomer, unassigned) [Compound 89-1] |  |  |  | 50 to 100 nM | 9020 ng·h/mL | 3200 ng/mL | 1 h | 3.1 h | 9010 ng·h/mL | 10 to 50 nM | 10 to 50 nM | melting point: 275 to 277 °C
7 | C=CC(=O)N1CCN(c2nc(=O)n(-c3c(C)ccnc3C(C)C)c3nc(-c4c(F)ccc5ccoc45)c(F)cc23)[C@@H](C)C1 [Compound 70, 4-((S)-4-acryloyl-2-methylpiperazin-1-yl)-6-fluoro-7-(6-fluorobenzofuran-7-yl)-1-(2-isopropyl-4-methylpyridin-3-yl)pyrido[2,3-d]pyrimidin-2(1H)-one] |  |  |  | 100 to 500 nM |  |  |  |  |  | 10 to 50 nM | 10 to 50 nM | 
8 | C=CC(=O)N1CCN(c2nc(=O)n(-c3c(C)ccnc3C(C)C)c3nc(-c4c(F)ccc5ccoc45)c(Cl)cc23)[C@@H](C)C1 [Compound 73, 4-((S)-4-acryloyl-2-methylpiperazin-1-yl)-6-chloro-7-(6-fluorobenzofuran-7-yl)-1-(2-isopropyl-4-methylpyridin-3-yl)pyrido[2,3-d]pyrimidin-2(1H)-one] |  |  |  | < 50 nM | 8640 ng·h/mL | 3360 ng/mL | 1 h | 3.97 h | 8630 ng·h/mL | < 10 nM | < 10 nM | IC50 (H23 (KRAS G12C); Homo sapiens, 72 h): < 10 nM
9 | C=CC(=O)N1CCN(c2nc(=O)n(-c3c(C)ccnc3C(C)C)c3nc(-c4c(F)ccc5c4OCC5)c(F)cc23)[C@@H](C)C1 [Compound 79, 4-((S)-4-acryloyl-2-methylpiperazin-1-yl)-6-fluoro-7-(6-fluoro-2,3-dihydrobenzofuran-7-yl)-1-(2-isopropyl-4-methylpyridin-3-yl)pyrido[2,3-d]pyrimidin-2(1H)-one] |  |  |  | 100 to 500 nM |  |  |  |  |  | 10 to 50 nM | 10 to 50 nM | 
10 | C=CC(=O)N1CCN(c2nc(=O)n(-c3c(C)ccnc3C(C)C)c3nc(-c4c(F)ccc5c4OCO5)c(Cl)cc23)[C@@H](C)C1 [Compound 97, 4-((S)-4-acryloyl-2-methylpiperazin-1-yl)-6-chloro-7-(5-fluorobenzo[d][1,3]dioxol-4-yl)-1-(2-isopropyl-4-methylpyridin-3-yl)pyrido[2,3-d]pyrimidin-2(1H)-one] |  |  |  | 50 to 100 nM | 10400 ng·h/mL | 4660 ng/mL | 1 h | 5.98 h | 10400 ng·h/mL | < 10 nM | 10 to 50 nM | 
11 | C=CC(=O)N1CCN(c2nc(=O)n(-c3c(C(C)C)ccnc3C(C)C)c3nc(-c4c(F)ccc5ccoc45)c(Cl)cc23)[C@@H](C)C1 [Compound 122, 4-((S)-4-acryloyl-2-methylpiperazin-1-yl)-6-chloro-1-(2,4-diisopropylpyridin-3-yl)-7-(6-fluorobenzofuran-7-yl)pyrido[2,3-d]pyrimidin-2(1H)-one] |  |  |  | < 50 nM | 6000 ng·h/mL | 1630 ng/mL | 1.67 h | 3.64 h | 5990 ng·h/mL | < 10 nM | < 10 nM | melting point: 162 to 173 °C
